Source: US5618675A, “Methods and compositions for detecting lipopolysaccharides using CAP18 fragments” (Panorama Research, Inc., dated 1997)

Tested on: multiple drug-resistant Mycobacterium tuberculosis
Assay: Antimicrobial activity
Type: cell-based
Settings: range 0-20 μg/ml

Substance | activity versus multiple drug-resistant Mycobacterium tuberculosis
36-1: synthetic rabbit RNIP-derived fragment, amino acids 135-166 of SEQ ID NO:4 (GLRKRLRKFRNKIKEKLKKIGQKIQGLLPKLA) | inactive
RNIP: reactive nitrogen inhibitory protein, amino acids 135-171 of SEQ ID NO:4 (rabbit CAP18 C-terminus); purified from granulocytes or synthetic (#197) (GLRKRLRKFRNKIKEKLKKIGQKIQGLLPKLAPRTDY) | inactive
